Patent US20260083844A1, “DOWNREGULATING INOS TO INCREASE CAR-T KILLING” (H. LEE MOFFITT CANCER CENTER AND RESEARCH INSTITUTE INC., priority 2022, published 2026)

Experiments:
[1] = system: CAR T cells; experiment: CAR T cell expansion assay (live cell analysis) in coculture with Eμ-myc cells with or without macrophages; format: cell-based, mouse; conditions: over 48 h
Description: To explore how M2-like macrophages may impact the cellular function of CAR T cells, a syngeneic coculture system was employed (FIG. 2A). […] The BMDMs were differentiated into M2-like macrophages (imMac) by culturing with IL-4 and IL-10 or with media alone without further differentiation to utilize as unpolarized macrophage controls (unMac). The mCherry reporter served as a marker for CAR transduction and CAR T cell expansion.
The expansion of CAR T cells was determined by an Incucyte S3 live cell analysis system (Essen Bioscience). 2×10^4 Eμ-myc cells and 2×10^4 CAR T cells were cocultured in the absence or presence of 0.5×10^4 macrophages (CAR T:Eμ-myc cell:Macrophage=1:1:0.25, unless otherwise indicated in the figure legends) in a 96-well black-walled clear bottom plate in 120 μl of media. Cell images were captured at 4× magnification. The expansion index was calculated by dividing the total integrated red intensity (RCU×μm^2/mm^2) at each time point by the first time point.

[2] = system: Eμ-myc cells; experiment: Luciferase-based killing assay with CAR T cells isolated from initial coculture; format: cell-based, mouse; conditions: for ability of CAR T cells to kill tumor cells: 48 h initial coculture with Eμ-myc cells in presence of NCX-4016 (100 µM) or PNT (50 µM), no macrophages, lysis at 24 h
Description: (§1) 1×10^6 CAR T cells and 1×10^6 Eμ-myc-GFP-FFL cells were cocultured in the absence or presence of 0.25×10^6 macrophages in a 6-well plate in 6 ml of media for 48 h. After initial coculture, cells were harvested, and T cells were isolated using Mouse T Cell Isolation Kit ([…] Technologies). […] Percentage of CAR-expressing T cells was determined with flow cytometry and were subsequently used for downstream assays.
2×10^4 Eu-ALL-GFP-FFL cells were cocultured with CAR T cells at different effector-to-target ratios in a 96-well white-walled plate in 100 μl of media. Following incubation, 100 μl luciferase substrate reagent (ONE-Glo Luciferase assay system, Promega) was added to each well. Target cells alone were plated at the same cell density to determine maximum luciferase signals. Emitted luminescence was detected in the microplate reader (GloMax, Promega). Percent lysis was determined as (1-sample signal/maximum signal)×100.

[3] = system: IFN-γ and TNF-α; experiment: Cytokine secretion assay with CAR T cells isolated from initial coculture; format: cell-based, mouse; conditions: for secretion of effector cytokines IFN-γ and TNF-α by CAR T cells: 48 h initial coculture with Eμ-myc cells in presence of NCX-4016 (100 µM) or PNT (50 μM), no macrophages, supernatants at 24 h
Description: as §1
2×10^4 Eμ-myc cells were cocultured with 2×10^4 CAR T cells in a 96-well plate in a total volume of 100 μl of media. Supernatants were collected and analyzed for IFN-γ and TNF-α secretion using Ella automated immunoassay system (Proteinsimple Bio-techne) according to manufacturer's instructions.

[4] = system: CAR T cells; experiment: Global metabolomics on CAR T cells from coculture; format: cell-based, mouse; conditions: 48 h coculture with imMac
Description: (§2) 1×10^6 CAR T cells and 1×10^6 Eμ-myc-GFP-FFL cells were cocultured in the absence or presence of 0.25×10^6 macrophages in a 6-well plate in 6 ml of media for 48 h. After initial coculture, cells were harvested, and T cells were isolated using Mouse T Cell Isolation Kit (STEMCELL Technologies). T cell purity was 100% as tested by flow cytometry. Percentage of CAR-expressing T cells was determined with flow cytometry and were subsequently used for downstream assays.
Global metabolomic profiling and 13C6-labeled glucose tracing of CAR T cells, 1×10^6 T cells were resuspended in either RPMI-1640 medium (RPMI+10% heat-inactivated dialyzed FBS) or 13C6-glucose substituted RPMI-1640 medium (glucose-free RPMI+10% heat-inactivated dialyzed FBS+11.1 mM ^13C6-glucose). After 4 h incubation, cells were collected, rapidly centrifuged (17,000×g, 10 sec, room temperature), and medium was removed. T cells were washed with 1 ml of ice-cold PBS, and metabolites were extracted with 300 μl of 80% methanol via incubation at −80° C. for 15 min. Samples were centrifuged (17,000×g, 20 min, 4° C.), and supernatants were transferred to an Eppendorf tube and dried in a vacuum evaporator overnight. The dried extracts were resuspended in 20 μl of aqueous 50% methanol, clarified by centrifugation (17,000×g, 20 min, room temperature), and analyzed by LC-HRMS. […]

[5] = system: CAR T cells; experiment: Seahorse assay (ECAR, OCR) on CAR T cells from coculture; format: cell-based, mouse; conditions: 48 h coculture in the presence of imMac
Description: as §2
ECAR and OCR were measured using a Seahorse Extracellular Flux Analyzer (Agilent Technologies). XF96 microplates were coated with CellTak a day before analyses. To assay glycolytic function, T cells were resuspended in glucose-free XF medium supplied with 2 mM L-glutamine and 1 mM sodium pyruvate and seeded at 2×10^5 cells in 180 μl per well. Following incubation in a CO2-free incubator for 60 min at 37° C. for pH stabilization, ECAR was measured in response to 10 mM glucose, 1 μM oligomycin, and 50 mM 2-deoxyglucose. To assay mitochondrial function, T cells were resuspended in XF medium supplied with 2 mM L-glutamine, 1 mM sodium pyruvate, and 10 mM glucose and seeded at 2×10^5 cells in 180 μl per well. Following incubation in a CO2-free incubator for 60 min at 37° C. for pH stabilization, OCR was measured in response to 1 μM oligomycin, 1 μM FCCP, and 0.5 µM rotenone and antimycin.

[6] = system: Eμ-myc B cell tumors; experiment: Survival of Eμ-myc tumor-bearing Rag1−/− mice treated with CAR T cells; format: in vivo, mouse; conditions: combination of 1928z CAR T cells and L-NIL (20 mg/kg i.p. once per day) compared to 1928z CAR T cells alone
Description: Six-to 10-week-old Rag1/-mice of both sexes were intraperitoneally (i.p.) injected with 3×10^6 Eμ-myc-GFP-FFL cells to generate tumors localized in peritoneal cavity. Tumor engraftment was verified by bioluminescence imaging one day before CAR T cell transfer. Mice were randomized to different treatment groups without differences in pre-treatment tumor load. Seven days after tumor cell inoculation, mice were injected i.p. with 5×10^6 CAR T cells in 300 μl PBS. For survival experiments, L-NIL or PBS was administered i.p. once per day at 20 mg/kg body weight starting on the same day of tumor cell injection. […] Bioluminescence imaging was performed by IVIS Lumina III In Vivo Imaging System (PerkinElmer) with Living Image software (PerkinElmer).

[7] = CAR T cells cocultured with Eμ-myc cells without macrophages
[8] = cocultures of CAR T cells and Eμ-myc cells with imMac

SMILES: C=C(CC(=O)OCCCCCCCC)C(=O)O [4-OI, 4-octyl itaconate]
- CAR T cell expansion [1, 7]: impaired CAR T cell expansion

SMILES: CC(=N)NCCCC[C@H](N)C(=O)O [L-NIL, L-N6-(1-Iminoethyl)-lysine]
- CAR T cell expansion [1, 8]: complete rescue of CAR T cell expansion
- capacity of CAR T cells to kill (lyse) tumor cells ([2]; CAR T cells isolated after 48 h initial coculture with imMac, then cocultured with fresh Eμ-myc cells, 24 h): preserved the capacity of CAR T cells to kill tumor cells
- production of effector cytokines IFN-γ and TNF-α by CAR T cells ([3]; CAR T cells isolated after 48 h initial coculture with imMac, then cocultured with fresh Eμ-myc cells): preserved
- depletion of F1,6BP, G3P and DHAP in CAR T cells cocultured with imMac [4]: reversal
- glycolytic and oxidative metabolic capabilities of CAR T cells (ECAR, OCR) [5]: preserved glycolytic and oxidative metabolic capabilities of CAR T cells
- survival of tumor-bearing mice [6]: significantly improved survival

SMILES: CC(=O)Oc1ccccc1C(=O)Oc1cccc(CO[N+](=O)[O-])c1 [NCX-4016]
- CAR T cell expansion [1, 7]: inhibition of CAR T cell expansion
- ability of CAR T cells to kill tumor cells [2]: diminished ability of CAR T cells to kill tumor cells
- secretion of effector cytokines IFN-γ and TNF-α by CAR T cells [3]: diminished

SMILES: O=NOO [PNT, peroxynitrite]
- CAR T cell expansion [1, 7]: inhibition of CAR T cell expansion
- ability of CAR T cells to kill tumor cells [2]: diminished ability of CAR T cells to kill tumor cells
- secretion of effector cytokines IFN-γ and TNF-α by CAR T cells [3]: diminished

SMILES: CC1(C)N([O])C(c2ccc(C(=O)O)cc2)=[N+]([O-])C1(C)C [c-PTIO, carboxyl-PTIO]
- CAR T cell expansion [1, 8]: partially rescued expansion of CAR T cells

SMILES: NC(=O)NCCC[C@H](N)C(=O)O [citrulline]
- CAR T cell expansion [1, 7]: did not impact expansion of CAR T cells

SMILES: N=C(NO)NCC[C@H](N)C(=O)O [nor-NOHA]
- CAR T cell expansion ([1]; cocultures with imMac, physiological arginine concentration (150 μM)): failed to rescue CAR T cell expansion
- CAR T cell expansion ([1]; cocultures with imMac, supraphysiological arginine concentration (1.15 mM)): did not restore CAR T cell expansion
